Experimental data published in ChEMBL document CHEMBL3272106, “Synthesis and narcotic agonist-antagonist evaluation of some 2,6-methano-3-benzazocine-11 propanols. Analogues of the ring C bridged oripavine-7-mehtanols” (1977).
Active and inactive are the calls of the source. No cut-off for these calls is given here.

What was measured:
[1] = test system: Rattus norvegicus; experiment: Narcotic antagonist activity in rat assessed as inhibition of phenazocine-induced response at 80 mg/kg, sc; type: functional, organism-based; design: dose 80 mg/kg
[2] = test system: Mus musculus; experiment: Narcotic agonist activity in sc dosed albino mouse assessed as protection against acetylcholine-induced writhing administered 20 mins prior to acetylcholine challenge measured for 2 mins; type: functional
[3] = test system: Rattus norvegicus; experiment: Narcotic antagonist activity in sc dosed rat assessed as 50% inhibition of phenazocine-induced response; type: functional
[4] = test system: Mus musculus; experiment: Narcotic agonist activity in albino mouse assessed as protection against acetylcholine-induced writhing at 25 mg/kg, sc administered 20 mins prior to acetylcholine challenge measured for 2 mins relative to control; type: functional; details: route subcutaneous
[5] = test system: Rattus norvegicus; experiment: Narcotic antagonist activity in rat assessed as inhibition of phenazocine-induced response at 80 mg/kg, sc relative to nalorphine; type: functional; design: scale not given: the % may be the effect or the level left; details: route subcutaneous
[6] = Mus musculus, sc, read-out: ED50

| Structure (SMILES) | ED50 [2, 6] | AD50 [3] | other results |
| --- | --- | --- | --- |
| C[C@H]1[C@@H]2Cc3ccc(O)cc3[C@]1(C)CCN2C [METAZOCINE] | 0.54 mg/kg |  | inhibition [1]: inactive |
| CC(C)(C)C(C)(O)CC[C@]1(C)[C@H]2Cc3ccc(O)cc3[C@@]1(C)CCN2CC1CC1.CS(=O)(=O)O (stereo in doubt; 4q) |  | 0.022 mg/kg | Activity [4]: <50% |
| CN1CC[C@]2(C)c3cc(O)ccc3C[C@@H]1[C@H]2CCC(C)(O)C(C)(C)C (stereo in doubt; 4f) |  |  | inhibition [1]: inactive |
| CC(C)(C)C(C)(O)CC[C@@H]1[C@H]2Cc3ccc(O)cc3[C@@]1(C)CCN2CC1CC1.CS(=O)(=O)O (single isomer, unassigned; isomer II) |  | 1.1 mg/kg | ED50 [2]: 9 mg/kg |
| CC(C)(O)CC[C@]1(C)[C@H]2Cc3ccc(O)cc3[C@@]1(C)CCN2CC1CC1.Cl | 4.5 mg/kg | 0.006 mg/kg |  |
| CCCC(C)(O)CC[C@@H]1[C@H]2Cc3ccc(O)cc3[C@@]1(C)CCN2CC1CC1.CS(=O)(=O)O (stereo not given in full) | 7.6 mg/kg | 0.019 mg/kg |  |
| CN1CC[C@]2(C)c3cc(O)ccc3C[C@@H]1[C@@]2(C)CCC(C)(O)C(C)(C)C.CS(=O)(=O)O (mixture of isomers) | > 25 mg/kg | 0.33 mg/kg | Activity [5]: 30%; Activity [4]: <50% |
| CC(C)(C)C(C)(O)CC[C@@H]1[C@H]2Cc3ccc(O)cc3[C@@]1(C)CCN2CC1CC1.CS(=O)(=O)O (single isomer, unassigned; isomer I) |  | 0.27 mg/kg | Activity [4]: <50%; ED50 [2]: >25 mg/kg |
| CC(C)(C)C(C)(O)CC[C@]1(C)[C@H]2Cc3ccc(O)cc3[C@@]1(C)CCN2CC1CC1.CS(=O)(=O)O (single isomer, unassigned; isomer II) |  | 0.71 mg/kg |  |
| CN1CC[C@]2(C)c3cc(O)ccc3C[C@@H]1[C@@]2(C)CCC(C)(O)C(C)(C)C (stereo not given in full) [listing 1 of 2 here] |  |  | inhibition [1]: inactive |
| CC(C)(O)CC[C@@H]1[C@H]2Cc3ccc(O)cc3[C@@]1(C)CCN2CC1CC1 | 16 mg/kg | 0.046 mg/kg |  |
| C[C@H]1[C@H]2Cc3ccc(O)cc3[C@]1(C)CCN2CC1CC1 [CYCLAZOCINE] | 0.15 mg/kg | 0.007 mg/kg |  |
| CN1CC[C@]2(C)c3cc(O)ccc3C[C@@H]1[C@H]2CCC(C)(O)C(C)(C)C.CS(=O)(=O)O (stereo in doubt; 4e) |  |  | Activity [4]: <50%; ED50 [2]: >75 mg/kg |
| CCC(C)(O)CC[C@@H]1[C@H]2Cc3ccc(O)cc3[C@@]1(C)CCN2C.CS(=O)(=O)O (stereo not given in full) | 3.3 mg/kg |  | inhibition [1]: inactive |
| CN1CC[C@]2(C)c3cc(O)ccc3C[C@@H]1[C@H]2CCC(C)(O)C(C)(C)C.CS(=O)(=O)O (stereo in doubt; 4f) |  |  | ED50 [2]: >25 mg/kg |
| CCC(C)(O)CC[C@@H]1[C@H]2Cc3ccc(O)cc3[C@@]1(C)CCN2CC1CC1.CS(=O)(=O)O (stereo not given in full) | 7.9 mg/kg | 0.04 mg/kg |  |
| C=CCN1CC[C@]23c4c5ccc(O)c4O[C@H]2[C@@H](O)C=C[C@H]3[C@H]1C5 [NALORPHINE] |  | 0.1 mg/kg |  |
| CN1CC[C@]2(C)c3cc(O)ccc3C[C@@H]1[C@H]2CCC(C)(C)O | 8.2 mg/kg |  | inhibition [1]: inactive |
| CN1CC[C@]2(C)c3cc(O)ccc3C[C@@H]1[C@@]2(C)CCC(C)(O)C(C)(C)C (stereo not given in full) [listing 2 of 2 here] | > 25 mg/kg |  | Activity [4]: <50% |
| CO[C@@]12CC[C@@]3(C[C@@H]1[C@](C)(O)C(C)(C)C)[C@H]1Cc4ccc(O)c5c4[C@@]3(CCN1CC1CC1)[C@H]2O5 [BUPRENORPHINE] |  | 0.11 mg/kg |  |
| CCCCC(C)(O)CC[C@@H]1[C@H]2Cc3ccc(O)cc3[C@@]1(C)CCN2C.CS(=O)(=O)O (stereo not given in full) | 2.5 mg/kg |  | inhibition [1]: inactive |
| CCCC(C)(O)CC[C@@H]1[C@H]2Cc3ccc(O)cc3[C@@]1(C)CCN2C.CS(=O)(=O)O (stereo not given in full) | 2.6 mg/kg |  | inhibition [1]: inactive |
| CN1CC[C@]2(C)c3cc(O)ccc3C[C@@H]1[C@@]2(C)CCC(C)(C)O | 3.8 mg/kg | 2.3 mg/kg |  |
| CCCCC(C)(O)CC[C@@H]1[C@H]2Cc3ccc(O)cc3[C@@]1(C)CCN2CC1CC1.CS(=O)(=O)O (stereo not given in full) | 6.5 mg/kg | 0.025 mg/kg |  |
